Assay [1] has as its system Rattus norvegicus. As to the kind of experiment: Inhibition of kynurenine-3-hydroxylase in rat brain assessed as increase in Increase in extracellular kynurenic acid level at 200 mg/kg, ip coadministered with 100 mg/kg kynurenine by in-vivo microdialysis measured up to 335 mins post dose relative to untreated control. The class given is functional.
Assay [2] deals with Rattus norvegicus. As to the kind of experiment: Inhibition of kynurenine-3-hydroxylase in rat brain assessed as increase in Increase in extracellular kynurenic acid level at 200 mg/kg, ip coadministered with 100 mg/kg kynurenine by in-vivo microdialysis measured at 5 hrs post dose relative to untreated control. The class given is functional, organism-based.
For assay [3], the system named is Rattus norvegicus. As to the kind of experiment: Inhibition of kynurenine-3-hydroxylase in rat brain assessed as increase in Increase in extracellular kynurenic acid level at 200 mg/kg, ip coadministered with 100 mg/kg kynurenine by in-vivo microdialysis measured at 135 mins post dose relative to untreated control. The class given is functional, organism-based.

Assay [4] concerns the target T1, Kynureninase (Rattus norvegicus) (UniProt P70712).
T1 sequence (whole entry): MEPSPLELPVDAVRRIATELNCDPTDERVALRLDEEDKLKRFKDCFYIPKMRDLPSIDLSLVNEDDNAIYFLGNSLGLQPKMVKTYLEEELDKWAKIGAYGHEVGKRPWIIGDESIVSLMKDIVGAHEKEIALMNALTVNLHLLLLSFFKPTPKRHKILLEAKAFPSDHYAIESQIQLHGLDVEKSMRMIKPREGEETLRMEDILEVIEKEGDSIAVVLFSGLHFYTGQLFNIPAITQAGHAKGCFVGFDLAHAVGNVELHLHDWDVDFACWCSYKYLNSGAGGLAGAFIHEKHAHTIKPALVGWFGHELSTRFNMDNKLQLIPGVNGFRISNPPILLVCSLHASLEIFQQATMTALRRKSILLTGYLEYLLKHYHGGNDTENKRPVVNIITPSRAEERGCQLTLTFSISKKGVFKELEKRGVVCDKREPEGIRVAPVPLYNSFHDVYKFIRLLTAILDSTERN
As to the kind of experiment: Inhibition of kynureninase in rat liver homogenates assessed as effect on production of anthranilic acid at >125 uM incubated for 30 mins by HPLC. The class given is tissue-based.

Assay [5] addresses Kynurenine 3-monooxygenase (Rattus norvegicus, UniProt O88867). As to the kind of experiment: (§1) Inhibition of kynurenine-3-hydroxylase in rat liver homogenates assessed as effect on production of 3-hydroxy kynurenine incubated for 1 hr by HPLC. The class given is tissue-based.
The target of assay [6] is Kynurenine 3-monooxygenase (Rattus norvegicus) (UniProt O88867). Described as §1. The class given is tissue-based.
For assay [7], the target named is T1, Kynureninase (Rattus norvegicus). As to the kind of experiment: Inhibition of kynureninase in rat liver homogenates assessed as effect on production of anthranilic acid up to 125 uM incubated for 30 mins by HPLC. The class given is tissue-based.
Assay [8] deals with Rattus norvegicus. As to the kind of experiment: Inhibition of kynurenine-3-hydroxylase in rat brain assessed as increase in Increase in extracellular kynurenic acid level at 200 mg/kg, ip coadministered with 100 mg/kg kynurenine by in-vivo microdialysis measured within 25 mins post dose relative to untreated control. The class given is functional, organism-based.
The test system of assay [9] is Rattus norvegicus. As to the kind of experiment: Effect on extracellular kynurenic acid in rat brain dosed at 200 mg/kg, ip by in-vivo microdialysis measured for 6 hrs post dose (reference value: 1.55 +/- 0.05 pg/ml). The class given is functional. To be noted: route intraperitoneal.
Assay [10] deals with Kynurenine 3-monooxygenase (Rattus norvegicus) (UniProt O88867). As to the kind of experiment: Inhibition of kynurenine-3-hydroxylase in rat liver homogenates assessed as effect on production of 3-hydroxy kynurenine up to 125 uM incubated for 1 hr by HPLC. The class given is tissue-based.

Active and inactive are the calls of the source. The calls are words filed in the database; no cut-off is given here.

The IC50 is the concentration that gives 50% inhibition.

Chain of Kynurenine 3-monooxygenase (Rattus norvegicus) (O88867 whole entry, looked up): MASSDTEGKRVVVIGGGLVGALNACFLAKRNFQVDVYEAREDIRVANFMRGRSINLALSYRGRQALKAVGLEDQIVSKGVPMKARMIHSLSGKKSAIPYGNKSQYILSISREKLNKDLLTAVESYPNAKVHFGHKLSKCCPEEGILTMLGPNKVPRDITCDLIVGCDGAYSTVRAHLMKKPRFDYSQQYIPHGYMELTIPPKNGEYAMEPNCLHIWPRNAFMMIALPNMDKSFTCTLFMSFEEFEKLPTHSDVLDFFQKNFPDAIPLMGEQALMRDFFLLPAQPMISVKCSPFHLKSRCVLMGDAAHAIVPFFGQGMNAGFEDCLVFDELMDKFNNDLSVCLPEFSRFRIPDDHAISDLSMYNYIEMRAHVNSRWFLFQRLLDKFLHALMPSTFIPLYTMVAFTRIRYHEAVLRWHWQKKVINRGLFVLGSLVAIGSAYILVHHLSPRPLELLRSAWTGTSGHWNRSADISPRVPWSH
Chain of Kynurenine 3-monooxygenase (O88867 whole entry): as the sequence (O88867 whole entry, looked up) above

For the compound `CC(=O)NCCCO[C@@H](CN)c1cc(Br)c(OS(=O)(=O)O)c(Br)c1` [IANTHELLAMIDE A], the “fold change (FC)” value in the assay on Rattus norvegicus [1] is recorded as 20. Moreover, the result in the assay on Rattus norvegicus [2], with Rattus norvegicus [3] and in the assay with Rattus norvegicus [8] was Active. Also, the inhibition result in [4] and in assay [10] was “Active” in each case. For the same compound, the 50% inhibitory concentration (IC50) in assay [5] was 1500 nM. Besides, the inhibition entry in [6] was “Dose-dependent effect”. Also, the inhibition result in [7] is “inactive”. This compound displayed an Activity in the assay with Rattus norvegicus [9] of 1.72 pg/µL.

The values above are taken from ChEMBL document CHEMBL2021881, “Ianthellamide A, a selective kynurenine-3-hydroxylase inhibitor from the Australian marine sponge Ianthella quadrangulata” (Bioorg Med Chem Lett, 2012).
